From patent publication US7256176B2, “Methods of modulating β cell function” (Joslin Diabetes Center, Inc., priority 2002, dated 2007)
Positions of bridges follow the written chain, without caps; N, C: chain ends.

Columns and labels:
human MCH-2R = human MCH-2R (Homo sapiens, UniProt Q969V1); details: cited from earlier work
[1] = tested on: islets isolated from MCH over expressing mice; assay: MCH treatment of islets from MCH over expressing mice (insulin secretion); format: cell-based, mouse; details: n=2, control 2.8±0.36
rat adipocytes = details: cited from earlier work
feeding = details: administered ICV; cited from earlier work
[2] = tested on: islets isolated from C57B1/6J mice; assay: MCH stimulation of insulin secretion from overnight cultured isolated islets; format: cell-based, mouse
MAP kinase = assay: Effect of MCH on MAP kinase activity in islets or clonal β-cells; format: cell-based, mouse; details: islets or clonal β-cells treated with 1 μM MCH
From the text: To begin to examine the mechanism of action of MCH in the islets the effect of the peptide on MAP kinase activity was investigated.

Sequence of human MCH-2R (Q969V1 whole entry): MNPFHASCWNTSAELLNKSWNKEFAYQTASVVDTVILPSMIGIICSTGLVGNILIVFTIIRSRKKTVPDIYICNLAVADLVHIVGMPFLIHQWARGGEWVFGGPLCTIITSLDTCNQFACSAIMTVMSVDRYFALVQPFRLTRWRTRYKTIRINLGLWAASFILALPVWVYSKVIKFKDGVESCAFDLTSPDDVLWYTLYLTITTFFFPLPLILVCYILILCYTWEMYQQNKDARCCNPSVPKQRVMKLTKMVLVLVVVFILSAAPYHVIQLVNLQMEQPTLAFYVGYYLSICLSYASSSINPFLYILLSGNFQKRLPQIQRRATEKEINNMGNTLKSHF

In the case of “Arg-cyclo(S-S)(Cys-Met-Leu-Gly-Arg-Val-Tyr-Arg-Pro-Cys)”, the “activation of receptor compared with full-length human MCH” value (human MCH-2R) is listed as “about as effectively as full-length human MCH”.

In the case of “NH2-Asp-Phe-Asp-Met-Leu-Arg-Cys-Met-Leu-Gly-Arg-Val-Tyr-Arg-Pro-Cys-Trp-Gln-Val-COOH (H-DFDMLRCMLGRVYRPCWQV-OH; disulfide 7-16 (inferred); ends not checked) [MCH, cyclic 19 amino-acid peptide that is an important regulator of feeding behavior]”, the insulin secretion [1] is given as 11.4±0.49 pg/μg protein, the leptin secretion (rat adipocytes) is given as “stimulate leptin secretion” and the feeding (feeding) is given as “acute increase in feeding”. The insulin secretion ([2]; 100 nM MCH, 30 min incubation, 11.1 mM glucose, n=3, p<0.02 vs control 0.86±0.22) was 2.1±0.11 % of insulin content, the “insulin secretion, dependence on concentration and time” value ([2]; overnight cultured islets) was “concentration- and time-dependent insulin secretion” and the “effect on MAP kinase levels” value (MAP kinase) was “No consistent effect”.
